Usually IC50 stands for the concentration that inhibits the measured activity by half. The low end stands for greater potency, the high end for weaker potency.

Results on 11 compounds are retold here after patent US10023570B2 (Array BioPharma, Inc., priority 2015, dated 2018).

This assay addresses human KDR protein in HEK-293 cells (Homo sapiens (Human), UniProt P35968). The assay can be described thus: KDR Cell Assay (phospho-KDR in HEK-293 cells expressing inducible KDR). The format is cell-based. The following applies: pKDR Cell HEK 10% FBS IC50, HEK-293 cells expressing inducible KDR, VEGF stimulated. The method in brief:
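HEK-293 cells with inducible human KDR were treated with compound for 1 h in DMEM (0.25% DMSO final), then lysed. Phospho-KDR was quantified by Meso Scale immunoassay, expressed as percent of control, and IC50 taken where a 4-parameter logistic fit crossed 50 POC.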

human KDR protein in HEK-293 cells, sequence (P35968 20-1356): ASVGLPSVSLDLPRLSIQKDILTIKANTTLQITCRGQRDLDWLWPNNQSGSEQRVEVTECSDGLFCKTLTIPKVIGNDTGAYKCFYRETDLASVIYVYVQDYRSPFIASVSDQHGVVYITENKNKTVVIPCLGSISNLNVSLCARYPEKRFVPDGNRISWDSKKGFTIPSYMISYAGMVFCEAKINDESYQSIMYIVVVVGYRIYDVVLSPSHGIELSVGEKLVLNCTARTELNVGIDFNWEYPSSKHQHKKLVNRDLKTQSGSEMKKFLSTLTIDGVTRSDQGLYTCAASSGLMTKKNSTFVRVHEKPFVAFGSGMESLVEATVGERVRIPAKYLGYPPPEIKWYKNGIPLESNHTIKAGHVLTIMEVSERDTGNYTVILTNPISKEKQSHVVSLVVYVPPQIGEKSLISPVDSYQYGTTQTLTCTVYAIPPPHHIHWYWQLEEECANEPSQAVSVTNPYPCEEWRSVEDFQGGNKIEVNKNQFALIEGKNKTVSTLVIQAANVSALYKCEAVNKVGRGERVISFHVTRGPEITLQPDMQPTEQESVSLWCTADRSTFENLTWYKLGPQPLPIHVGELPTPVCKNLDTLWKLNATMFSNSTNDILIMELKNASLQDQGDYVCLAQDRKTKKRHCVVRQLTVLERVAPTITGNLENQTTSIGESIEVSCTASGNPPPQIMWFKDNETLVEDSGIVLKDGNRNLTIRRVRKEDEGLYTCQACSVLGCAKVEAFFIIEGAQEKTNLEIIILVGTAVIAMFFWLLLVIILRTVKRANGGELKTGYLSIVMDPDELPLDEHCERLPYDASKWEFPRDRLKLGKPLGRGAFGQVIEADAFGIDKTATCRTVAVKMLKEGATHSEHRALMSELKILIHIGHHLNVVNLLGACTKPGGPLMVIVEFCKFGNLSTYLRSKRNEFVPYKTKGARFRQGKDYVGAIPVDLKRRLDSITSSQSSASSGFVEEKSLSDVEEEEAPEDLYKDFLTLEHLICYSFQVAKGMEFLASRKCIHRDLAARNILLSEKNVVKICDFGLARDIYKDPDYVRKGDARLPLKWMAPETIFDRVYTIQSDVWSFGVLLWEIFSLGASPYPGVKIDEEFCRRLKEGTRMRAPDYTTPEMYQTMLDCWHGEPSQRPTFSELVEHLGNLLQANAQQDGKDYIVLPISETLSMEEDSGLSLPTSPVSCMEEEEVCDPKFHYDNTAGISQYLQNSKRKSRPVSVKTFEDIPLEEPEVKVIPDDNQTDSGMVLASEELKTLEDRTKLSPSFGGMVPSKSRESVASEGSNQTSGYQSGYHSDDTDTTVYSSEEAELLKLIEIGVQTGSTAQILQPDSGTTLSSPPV

`CO[C@H]1CCN(C(=O)N2CCN(c3ccc(-c4cc(-c5cnn(C(F)F)c5)cn5ncc(C#N)c45)cn3)CC2)C1` [Example 269, (S)-6-(1-(difluoromethyl)-1H-pyrazol-4-yl)-4-(6-(4-(3-methoxypyrrolidine-1-carbonyl)piperazin-1-yl)pyridin-3-yl)pyrazolo[1,5-a]pyridine-3-carbonitrile] registered an IC50 (10% FBS) of 1700 nM. Same read-out and setting: the figure for `Cn1cc(-c2cc(-c3ccc(N4CCN(C(=O)CC5CCOCC5)CC4)nc3)c3c(C#N)cnn3c2)cn1` [Example 76, 6-(1-methyl-1H-pyrazol-4-yl)-4-(6-(4-(2-(tetrahydro-2H-pyran-4-yl)acetyl)piperazin-1-yl)pyridin-3-yl)pyrazolo[1,5-a]pyridine-3-carbonitrile] is 1010 nM. On to `Cc1cc(C)nc(CN2CCN(c3ccc(-c4cc(-c5cnn(C)c5)cn5ncc(C#N)c45)cn3)CC2)n1` [Example 401, 4-(6-(4-((4,6-dimethylpyrimidin-2-yl)methyl)piperazin-1-yl)pyridin-3-yl)-6-(1-methyl-1H-pyrazol-4-yl)pyrazolo[1,5-a]pyridine-3-carbonitrile], for which the IC50 was 692 nM. For the setting “10% FBS”, `C[C@H](C(=O)N1CCN(c2ccc(-c3cc(-c4cnn(C)c4)cn4ncc(C#N)c34)cn2)CC1)c1ccccc1` [Example 15, (S)-6-(1-methyl-1H-pyrazol-4-yl)-4-(6-(4-(2-phenylpropanoyl)piperazin-1-yl)pyridin-3-yl)pyrazolo[1,5-a]pyridine-3-carbonitrile] gave an IC50 of 643 nM. `CC(C)C1CCN(C(=O)N2CCN(c3ccc(-c4cc(-c5cnn(C)c5)cn5ncc(C#N)c45)cn3)CC2)C1` (centres unmarked) [Example 390, 4-(6-(4-(3-isopropylpyrrolidine-1-carbonyl)piperazin-1-yl)pyridin-3-yl)-6-(1-methyl-1H-pyrazol-4-yl)pyrazolo[1,5-a]pyridine-3-carbonitrile] returned a half-inhibitory concentration (IC50) of 951 nM. Same read-out and setting: the figure for `Cn1cc(-c2cc(-c3ccc(N4CCC5(CN(Cc6ccccc6)C5)C4)nc3)c3c(C#N)cnn3c2)cn1` [Example 558, 4-(6-(2-benzyl-2,6-diazaspiro[3.4]octan-6-yl)pyridin-3-yl)-6-(1-methyl-1H-pyrazol-4-yl)pyrazolo[1,5-a]pyridine-3-carbonitrile] is 548 nM. Under “10% FBS”, `CN(C)CC(=O)N1CCN(c2ccc(-c3cc(-c4cnn(C)c4)cn4ncc(C#N)c34)cc2)CC1` [Example 296, 4-(4-(4-(2-(dimethylamino)acetyl)piperazin-1-yl)phenyl)-6-(1-methyl-1H-pyrazol-4-yl)pyrazolo[1,5-a]pyridine-3-carbonitrile] gave an IC50 of 2350 nM. Still for that read-out and setting: the figure for `C[C@H](CO)Cn1cc(-c2cc(-c3ccc(N4CCN(C(=O)CC(C)(C)C)CC4)cc3)c3c(C#N)cnn3c2)cn1` [Example 307, (S)-4-(4-(4-(3,3-dimethylbutanoyl)piperazin-1-yl)phenyl)-6-(1-(3-hydroxy-2-methylpropyl)-1H-pyrazol-4-yl)pyrazolo[1,5-a]pyridine-3-carbonitrile] is 864 nM.

With `Cc1nn(C)cc1CN1CCN(c2ccc(-c3cc(-c4cnn(C)c4)cn4ncc(C#N)c34)cn2)CC1` [Example 440, 4-(6-(4-((1,3-dimethyl-1H-pyrazol-4-yl)methyl)piperazin-1-yl)pyridine-3-yl)-6-(1-methyl-1H-pyrazol-4-yl)pyrazolo[1,5-a]pyridine-3-carbonitrile], the midpoint of inhibition, the IC50, lay at 1690 nM. Still for that read-out and setting: the figure for `Cn1cc(-c2cc(-c3ccc(N4CCN(Cc5ccccn5)CC4)nc3)c3c(C#N)cnn3c2)cn1` [Example 473, 6-(1-methyl-1H-pyrazol-4-yl)-4-(6-(4-(pyridine-2-ylmethyl)piperazin-1-yl)pyridin-3-yl)pyrazolo[1,5-a]pyridine-3-carbonitrile] is 968 nM. For the setting “10% FBS”, `Cc1cc(-c2cc(-c3ccc(N4CCN(C(=O)CC(C)(C)C)CC4)cc3)c3c(C#N)cnn3c2)n[nH]1` [Example 310, 4-(4-(4-(3,3-dimethylbutanoyl)piperazin-1-yl)phenyl)-6-(5-methyl-1H-pyrazol-3-yl)pyrazolo[1,5-a]pyridine-3-carbonitrile] showed an IC50 of 1760 nM.
